From patent US12616759B2, “Uses of labeled HSP90 inhibitors” (Sloan-Kettering Institute for Cancer Research, priority 2011, dated 2026)

How the values were obtained:
[1] = tested on: AML cell lines; experiment: apoptosis in AML cell lines, acridine orange/ethidium bromide; type: cell-based, human
Experimental: (§1) Apoptosis Assay: Cells were treated for 24, 48 or 72 h with vehicle (DMSO) or inhibitors as indicated. Following staining with Acridine Orange and Ethidium Bromide (1:1 mix of 100 µg/ml), cells were visualized with a fluorescent microscope (Zeiss Axiovert 40 CFL) and counted. Percentage of apoptotic cells was determined from 200-300 cells counted in each group. The percentage of apoptotic cells was calculated as: % Apoptotic cells=(total number of cells with apoptotic nuclei/total number of cells counted)×100.

[2] = tested on: FL5.12 mAKT-transfected cells; experiment: apoptosis in mAKT-transfected FL5.12 cells; type: cell-based
Excerpt: FL5.12 was derived as an interleukin-3 (IL-3)-dependent cell line with a functional JAK/STAT pathway and it has characteristic features of an early lymphocytic progenitor. Both the parental cells and the transfected cells express moderate-levels of active AKT and STAT5, as evidenced by AKT phosphorylation on Ser473 and STAT5 phosphorylation on Tyr694, respectively. The level of p-STAT5 but not p-AKT is dependent on the presence of IL-3. Introduction of a constitutively activated, myristoylated form of AKT (mAKT) under the control of a doxycycline (DOX)-inducible promoter further allows for the regulation of p-AKT levels in these cells. All together, these cells are a good isogenic model to evaluate the dependence of HSP90 inhibitor apoptotic sensitivity on activated AKT and STAT5-pathways.
Cells: Kasumi-1, SKNO-1, MOLM-13, MO-91, HEL, HL-60, THP-1, MV4-11 were grown in RPMI media supplemented with 10 mM HEPES, 4.5 g/L glucose, 1.5 g/L sodium bicarbonate, 1 mM sodium pyruvate, 10% FBS, and 1% penicillin/streptomycin. The stable transfectants of FL5.12 were previously described (18-Karnauskas 2003). In brief, for the generation of FL5.mAKT the myristylated AKT was cloned in the doxycycline inducible vector pRevTRE (Clontech) (this clone is designated mAKT). As a control, cell were transfected with vector alone (this clone is designated Vector). For generation of FL5.mAkt.Bcl-xL, the human Bcl-xL cDNA was cloned into the EcoRI site of the pBabePuro vector, and transfected into FL5.mAkt3 as described (18) (this clone is designated mAKT.Bcl-xL). These lines were cultured as described previously using DME-HG media supplemented with 10 mM HEPES, 10% FBS media containing 1 mg/ml Geneticin (G418) (Sigma #G9516) and 1 or 2 ng/mL of IL-3 (RD Systems #403 ML).
as §1
Western blot: Cells were grown to 60-70% confluence and treated with inhibitor or vehicle for the indicated times. Protein lysates were prepared in 50 mM Tris pH 7.4, 150 mM NaCl and 1% NP-40 lysis buffer. Protein concentrations were measured using the BCA kit (Pierce) according to the manufacturer's instructions. Protein lysates (10-100 μg) were resolved by SDS-PAGE, transferred onto nitrocellulose membrane and incubated with the indicated primary antibodies. […]

[3] = tested on: HSP90; experiment: fluorescence polarization HSP90 binding assay using SKBr3 cancer cell lysate; conditions: fluorescence polarization
[4] = tested on: HSP90; experiment: concomitant binding to HSP90 and streptavidin, K562 lysate; conditions: 100 μM; for HSP90-streptavidin binding with K562 lysate: streptavidin beads, overnight; for band at approximately 90 kDa, concomitant binding to HSP90 and streptavidin: K562 lysate, SDS-PAGE
Experimental: Having shown that each of the prepared biotinylated molecules retain good affinity to HSP90 we next wanted to determine whether the chain length was sufficient to maintain concomitant binding to HSP90 and streptavidin. […] Following sufficient washing to remove any unbound material, the remaining bead pellet was analyzed by SDS-PAGE. The gel was washed and stained with coomasie blue for 1 h.

[5] = tested on: HSP90; experiment: concomitant HSP90-streptavidin binding in live K562 cells; type: cell-based; conditions: for HSP90-streptavidin binding with K562 cells: live cells
Excerpt: Having shown that some of the molecules bind concomitantly to HSP90 and streptavidin, we next investigated whether this can similarly be accomplished in live cells.

[6] = tested on: lung and bone metastases; experiment: response of breast cancer patient to STA9090 by CT and FDG-PET; type: in vivo, human; conditions: triple-negative breast cancer patient
Experimental: FIGS. 28A, 28B, 28C, and 28D. A triple-negative breast cancer patient was imaged with ^124I-PU-H71 PET. At 20 min post-injection, uptake is noted in a lung mass (left arrow), and a bone lesion (right arrow) FIG. 28A, but at 24 h uptake is seen only in the lung lesion FIG. 28B. Both the lung and bone tumors are confirmed by CT and FDG-scans FIG. 28C. The patient started treatment with the HSP90 inhibitor STA-9090.
In another aspect of the present invention, patients who are identified as being candidates for HSP90 therapy are treated with a pharmaceutically effective amount of an HSP90 inhibitor. We have determined that cancer patients that are determined to be candidates to HSP90 inhibition therapy respond highly favorably to HSP90 inhibition therapy. If a patient has multiple tumors, then only those tumors with a sufficient avidity for the radiolabeled HSP90 inhibitor are expected to respond to HSP90 inhibition therapy. […] Similar results were obtained in patients with lymphoma, pancreatic cancer and neuroblastoma patients.

EC50 [3] | HSP90-streptavidin binding with K562 lysate [4] | band at approximately 90 kDa, concomitant binding to HSP90 and streptavidin [4] | Structure (SMILES) | HSP90-streptavidin binding with K562 cells ([5]; 100 μM, 4 h) | binding in live K562 cells ([5]; 100 μM, 4 h) | other results
– | – | – | O=c1[nH]c2ccccc2n1C1CCN(Cc2ccc(-c3nc4cc5[nH]cnc5cc4nc3-c3ccccc3)cc2)CC1 [AKTi, reference compound] | – | – | effect on apoptosis ([1]; HEL cells in culture): little to no effect; apoptotic cells ([2]; AKT activity increased by DOX): 30%; apoptotic cells ([2]; without DOX): 15-20%
– | – | – | COc1cccc(-c2cc(=O)c3ccccc3o2)c1N [MEKi, reference compound] | – | – | induction of apoptosis ([1]; 24, 48 and 72 h): Modest or little induction of apoptosis
154 nM | No | did not show a band at 90 kDa | CC(C)N(CCCn1c(Sc2cc3c(cc2I)OCO3)nc2c(N)ncnc21)C(=O)CCCC[C@@H]1SC[C@@H]2NC(=O)N[C@@H]21 [PU-H71-biotin2] | No | – | –
44.3 nM | No | did not show a band at 90 kDa | Nc1ncnc2c1nc(Sc1cc3c(cc1I)OCO3)n2CCCNC(=O)CCCC[C@@H]1SC[C@@H]2NC(=O)N[C@@H]21 [PU-H71-biotin3] | No | – | –
34.8 nM | No | did not show a band at 90 kDa | Nc1ncnc2c1nc(Sc1cc3c(cc1I)OCO3)n2CCCNC(=O)CCCCCNC(=O)CCCC[C@@H]1SC[C@@H]2NC(=O)N[C@@H]21 [PU-H71-biotin4] | No | – | –
31.4 nM | Yes | show a band at approximately 90 kDa | Nc1ncnc2c1nc(Sc1cc3c(cc1I)OCO3)n2CCCNC(=O)CCCCCNC(=O)CCCCCNC(=O)CCCC[C@@H]1SC[C@@H]2NC(=O)N[C@@H]21 [PU-H71-biotin5] | Yes | are able to permeate the cell membrane | –
66.2 nM | Yes | show a band at approximately 90 kDa | Nc1ncnc2c1nc(Sc1cc3c(cc1I)OCO3)n2CCCNC(=O)CCOCCOCCOCCOCCNC(=O)CCCC[C@@H]1SC[C@@H]2NC(=O)N[C@@H]21 [PU-H71-biotin6] | Yes | are able to permeate the cell membrane | band at approximately 90 kDa ([5]; 0.5 μM): still shows a faint band; binding in live K562 cells ([5]; 10 μM): maintain good binding; band at approximately 90 kDa ([5]; lowest concentration 1 μM): a faint band is still present
72.8 nM | No | did not show a band at 90 kDa | CC(C)N(CCCn1c(Sc2cc3c(cc2I)OCO3)nc2c(N)ncnc21)C(=O)CCCCCNC(=O)CCCC[C@@H]1SC[C@@H]2NC(=O)N[C@@H]21 [PU-H71-biotin7] | No | – | –
76.9 nM | Yes | show a band at approximately 90 kDa | CC(C)N(CCCn1c(Sc2cc3c(cc2I)OCO3)nc2c(N)ncnc21)C(=O)CCCCCNC(=O)CCCCCNC(=O)CCCC[C@@H]1SC[C@@H]2NC(=O)N[C@@H]21 [PU-H71-biotin8] | Yes | are able to permeate the cell membrane | –
110 nM | Yes | show a band at approximately 90 kDa | CC(C)N(CCCn1c(Sc2cc3c(cc2I)OCO3)nc2c(N)ncnc21)C(=O)CCOCCOCCOCCOCCNC(=O)CCCC[C@@H]1SC[C@@H]2NC(=O)N[C@@H]21 [PU-H71-biotin9] | Yes | are able to permeate the cell membrane | binding in live K562 cells ([5]; 10 μM): maintain good binding; band at approximately 90 kDa ([5]; lowest concentration 1 μM): a faint band is still present
58.9 nM | Yes | show a band at approximately 90 kDa | Nc1ncnc2c1nc(Sc1cc3c(cc1I)OCO3)n2CCCNCCOCCOCCOCCNC(=O)CCCC[C@@H]1SC[C@@H]2NC(=O)N[C@@H]21 [PU-H71-biotin] | No | failed to maintain binding in live cells | –
– | – | – | CC(C)c1cc(-c2n[nH]c(=O)n2-c2ccc3c(ccn3C)c2)c(O)cc1O [STA9090] | – | – | tumor response [6]: early partial response was demonstrated by FDG PET-CT studies in the lung mass but not in the spinal lesion; tumor response ([6]; listed as STA-9090): the lung but not the bone lesion is remarkably reduced in size
